Measurements published in patent publication US8343488B2, “Diagnosis and treatment of human dormancy-related sequellae” (priority 2002, dated 2013).
Read-outs that look alike come from different tables or passages of the source.

Assays:
[1] = system: pancreatic cancer; conditions: in vivo
[2] = system: stage-4 metastatic breast cancer; test: Case report: antibiotic treatment of metastatic breast cancer; format: in vivo, human
Procedure: A person was diagnosed with stage-4 metastatic breast cancer with bone, pelvic and lung involvement. Treatment was initiated on Jan. 23, 2005 with Amoxicillin 500 mg 1 QD, Ketek 400 mg 1 QD, Flagyl 500 mg 2 BID. The dose of Flagyl was […] to 500 mg 1 BID on Feb. 1, 2005. By Feb. […] Hospitalization was necessary. […] The attending physicians presumed the cause of their condition was C. difficile related despite the negative tests and treated them with metronidazole. […] They were encouraged to discontinue antibiotic treatment and enter hospice for palliative care.

[3] = system: stage 4-metastatic pancreatic cancer; test: Case report: antibiotic treatment of pancreatic cancer (Example 3); format: in vivo, human; conditions: before antibiotic treatment
Procedure: Ascites had developed and paracentesis was performed 3 days prior to our first visit. They were having difficulty breathing and eating due to abdominal distention from ascites. […] Treatment with Amoxicillin 500 mg 1 QD, Ketek 500 mg 1 QD, and Flagyl 500 mg 1-2 QD was initiated. […] 4, 2005 and was tolerating the above protocol. Their lab results from Jan. […] 27, 2004:
The dose of Flagyl was increased to 1500 mg on Jan. […] 27, 2005.

[4] = system: SLE, hypocomplementemic urticarial vasculitis; test: Case report: treatment of systemic lupus erythematosus
[5] = cited from earlier work
[6] = system: Cpn infected macrophages; conditions: in vitro; cited from earlier work
[7] = system: recurrent bronchitis; test: Case report: post-radiation recurrent bronchitis, antibacterial and antifungal therapy; format: in vivo, human; conditions: 500 mg QD #20; sputum positive for Klebsiella pneumoniae
Source text: It is generally known that ACC is not usually sensitive to chemotherapy or standard […] beam radiation. Higher energy radiation doses, such as neutron beam radiation, have shown some promise and referral to the Cancer Center for radiation treatment was arranged. Under the care of a physician, 16 sessions of neutron beam radiation were provided, followed by two sessions of endotracheal brachytherapy with proton radiation. The patient tolerated the radiation relatively well and returned to work. They were warned that chronic bronchitis might follow airway radiation from the loss of salivary cells and ciliary cells in the bronchus. The patient was screened for recurrence twice yearly with neck MRI and lung CT for 3 years and there was no evidence of recurrence. Post radiation year 4 brought recurrent bronchitis that would remit temporarily with antibiotic therapy.
Bronchoscopy was performed in January of 2004 to better determine the source of recurrent bronchitis. There was no evidence of cancer recurrence (FIG. 1). […] Brochoscopic washings were also sent for fungal cultures. The patient's IgG levels to Penicillium and Aspergillus were elevated, while the routine fungal cultures from bronchial washings were negative. […] The patient reported reduced fatigue, reduced inhalant allergies and a slight reduction in volume of sputum production. […]

[8] = system: Alzheimer's dementia; test: Case report: DRS-2 in a patient with Alzheimer's dementia; conditions: human, in vivo
Procedure: A retired attorney with Alzheimer's dementia was tested with the DRS-2 and found to be in the first percentile overall before T3 treatment and in the 25th percentile after 3 months of slow-release T3 therapy. Some parameters such as “conceptualization” increase dramatically from the 4th to the 50th percentile and “attention” improved from the 35th to the 89th percentile. […] Serology for Chlamydia pneumoniae confirmed both IgG and IgA antibodies (consistent with chronic or relapsing infection) and treatment with antibiotic medication has provided additional improvement in cognitive function. Prophylactic treatment with low dose antifungal medication is a component of this treatment.

[9] = system: seropositive RA; test: Case report: Chlamydia pneumoniae-related rheumatoid arthritis; format: in vivo, human; conditions: low dose
Procedure: A person with seropositive RA with joint swelling in their hands, elbows, knees and feet had negative serology for Chlamydia pneumoniae infection, along with elevated rT3/fT3 ratio and symptoms of fibromyalgia. They were initially treated with immunosuppressive medication including Prednisone 20 mg QD, Methotrexate 15 mg Qweek, antiTNF therapy with Humira injections twice monthly with limited response of less than ACR 20. […] After failing immunosuppressive therapy, a course of antibiotics designed to treat Chlamydia pneumoniae infection was prescribed. The antibiotic protocol is consistent with that recommended by Dr. Charles Stratton of Vanderbilt University for Chlamydia pneumoniae infection. […] This example illustrates the unreliable nature of currently available tests for Chlamydia pneumoniae infection and that patients with autoimmune disease with negative tests for Chlamydia pneumoniae infection are likely to have seronegative Chlamydia pneumoniae infection and respond to antibiotics. The use of T3 and antifungal medication in conjunction with antibiotic treatment has been beneficial.

[10] = system: SLE, hypocomplementemic urticarial vasculitis; conditions: in vivo

## Cc1ncc([N+](=O)[O-])n1CCO [metronidazole]
[1]
  tolerability of increased dose: well tolerated
[2]; after one week of increased doses
  adverse reaction: severe depression, hypotension, hypothermia, emesis and diarrhea
[2]; in hospital, C. difficile tests negative
  symptoms of presumed C. difficile diarrhea: symptoms did not remit

## CN[C@H](CC(C)C)C(=O)N[C@H]1C(=O)N[C@@H](CC(N)=O)C(=O)N[C@H]2C(=O)N[C@H]3C(=O)N[C@H](C(=O)N[C@H](C(=O)O)c4cc(O)cc(O)c4-c4cc3ccc4O)[C@H](O)c3ccc(c(Cl)c3)Oc3cc2cc(c3O[C@@H]2O[C@H](CO)[C@@H](O)[C@H](O)[C@H]2O[C@H]2C[C@](C)(N)[C@H](O)[C@H](C)O2)Oc2ccc(cc2Cl)[C@H]1O [Vancomycin]
[2]; in hospital
  symptoms after switch: symptoms gradually improved six days later

## CCCCCOC(=O)Nc1nc(=O)n([C@@H]2O[C@H](C)[C@@H](O)[C@H]2O)cc1F [zoloda]
[3]
  outcome of chemotherapy: failed

## CN(Cc1cnc2nc(N)nc(N)c2n1)c1ccc(C(=O)N[C@@H](CCC(=O)O)C(=O)O)cc1 [methotrexate]
[4]; additional immunosuppressive therapy
  tolerability of trial: poorly tolerated

## CCN(CCO)CCCC(C)Nc1ccnc2cc(Cl)ccc12 (stereo not shown) [hydroxychloroquine]
[4]; before October 2003
  synovitis, hypocomplementemic urticarial rash and proteinuria: responding to treatment

## O=C1O[C@H]([C@@H](O)CO)C(O)=C1O [Ascorbic acid]
[5]
  half life: 30 min
[6]
  effect on Cpn in infected macrophages: driving the organism into cryptic phase

## C[C@H]1COc2c(N3CCN(C)CC3)c(F)cc3c(=O)c(C(=O)O)cn1c23 [Levoquin]
[7]
  sputum production: reduced sputum production for three weeks

## N[C@@H](Cc1cc(I)c(Oc2ccc(O)c(I)c2)c(I)c1)C(=O)O [T3, triiodothyronine]
[8]
  effect of discontinuation of supplementation: worsening of Alzheimer's symptoms
[9]
  fatigue and muscle pain: fatigue and muscle pain improved

## Cc1oncc1C(=O)Nc1ccc(C(F)(F)F)cc1 [Arava]
[10]
  tolerability of trial: poorly tolerated
